The text below walks through data of patent publication US9884868B2, “TGF-beta inhibitors” (Rigel Pharmaceuticals, Inc., priority 2015, dated 2018).

In this test the target is HIS-TGF-βR1 T204D (Homo sapiens (Human), UniProt P36897, T204D). As to the kind of experiment: HTRF probe displacement assay with HIS-TGF-βR1 T204D. The following applies: read-out: TGFbr1 IC50; HTRF probe displacement, 1 nM HIS-TGF-βR1 T204D, 1 hour at room temperature.

Structures are written as SMILES.

Sequence of HIS-TGF-βR1 T204D (P36897 34-503 T204D): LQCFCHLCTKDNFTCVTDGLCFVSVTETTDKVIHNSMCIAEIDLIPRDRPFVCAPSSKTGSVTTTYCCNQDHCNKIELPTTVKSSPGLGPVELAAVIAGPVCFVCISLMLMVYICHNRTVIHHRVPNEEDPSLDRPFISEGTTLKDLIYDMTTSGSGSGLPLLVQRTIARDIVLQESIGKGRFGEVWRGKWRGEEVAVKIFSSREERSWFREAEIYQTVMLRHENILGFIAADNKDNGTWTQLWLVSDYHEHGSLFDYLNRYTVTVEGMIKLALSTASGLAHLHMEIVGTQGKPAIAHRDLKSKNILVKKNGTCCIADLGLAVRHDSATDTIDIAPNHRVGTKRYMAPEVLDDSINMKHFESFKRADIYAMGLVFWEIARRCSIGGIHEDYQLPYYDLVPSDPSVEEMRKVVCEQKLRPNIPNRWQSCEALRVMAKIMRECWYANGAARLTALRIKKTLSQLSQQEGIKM

A word on the IC50: it is the midpoint of a concentration-inhibition curve. As to `CC(C)n1cnc(-c2ccc(F)c(Cl)c2)c1-c1ccc2ncc(C#N)n2n1` [51′, 6-(4-(3-chloro-4-fluorophenyl)-1-isopropyl-1H-imidazol-5-yl)imidazo[1,2-b]pyridazine-3-carbonitrile], the IC50 amounted to 0.6 nM.

Regarding `CCn1cnc(-c2ccc(F)c(Cl)c2)c1-c1ccc2ncc(C#N)n2n1` [52′, 6-(4-(3-chloro-4-fluorophenyl)-1-ethyl-1H-imidazol-5-yl)imidazo[1,2-b]pyridazine-3-carbonitrile], the IC50 came out at 0.9 nM.

Turning to `N#Cc1cnc2ccc(-c3c(-c4ccc(F)c(Cl)c4)ncn3C3CC(F)(F)C3)nn12` [53′, 6-(4-(3-chloro-4-fluorophenyl)-1-(3,3-difluorocyclobutyl)-1H-imidazol-5-yl)imidazo[1,2-b]pyridazine-3-carbonitrile], the IC50 came to 2.1 nM.

With `N#Cc1cnc2ccc(-c3c(-c4ccc(F)c(Cl)c4)ncn3CCCF)nn12` [54′, 6-(4-(3-chloro-4-fluorophenyl)-1-(3-fluoropropyl)-1H-imidazol-5-yl)imidazo[1,2-b]pyridazine-3-carbonitrile], the IC50 stood at 0.8 nM.

For the compound `CC(F)(F)Cn1cnc(-c2ccc(F)c(Cl)c2)c1-c1ccc2ncc(C#N)n2n1` [56′, 6-(4-(3-chloro-4-fluorophenyl)-1-(2,2-difluoropropyl)-1H-imidazol-5-yl)imidazo[1,2-b]pyridazine-3-carbonitrile], the IC50 turned out to be 0.8 nM.

In the case of `CC(C)(F)Cn1cnc(-c2ccc(F)c(Cl)c2)c1-c1ccc2ncc(C#N)n2n1` [57′, 6-(4-(3-chloro-4-fluorophenyl)-1-(2-fluoro-2-methylpropyl)-1H-imidazol-5-yl)imidazo[1,2-b]pyridazine-3-carbonitrile], the IC50 was 1.5 nM.

For `N#Cc1cnc2ccc(-c3c(-c4ccc(F)c(Cl)c4)ncn3C3CCC3)nn12` [58′, 6-(4-(3-chloro-4-fluorophenyl)-1-cyclobutyl-1H-imidazol-5-yl)imidazo[1,2-b]pyridazine-3-carbonitrile], the IC50 was 0.8 nM.

Take `N#Cc1cnc2ccc(-c3c(-c4ccc(F)c(Cl)c4)ncn3C34CC(C3)C4)nn12` [59′, 6-(1-(bicyclo[1.1.1]pentan-1-yl)-4-(3-chloro-4-fluorophenyl)-1H-imidazol-5-yl)imidazo[1,2-b]pyridazine-3-carbonitrile]: the IC50 came to 1.1 nM.

With `N#Cc1cnc2ccc(-c3c(-c4ccc(F)c(Cl)c4)ncn3CCCl)nn12` [60′, 6-(4-(3-chloro-4-fluorophenyl)-1-(2-chloroethyl)-1H-imidazol-5-yl)imidazo[1,2-b]pyridazine-3-carbonitrile], the IC50 came to 0.9 nM.

With `N#Cc1cnc2ccc(-c3c(-c4ccc(F)c(Cl)c4)ncn3CCC3CC3)nn12` [61′, 6-(4-(3-chloro-4-fluorophenyl)-1-(2-cyclopropylethyl)-1H-imidazol-5-yl)imidazo[1,2-b]pyridazine-3-carbonitrile], the IC50 is 0.8 nM.

Consider `CC1(Cn2cnc(-c3ccc(F)c(Cl)c3)c2-c2ccc3ncc(C#N)n3n2)CC1` [62′, 6-(4-(3-chloro-4-fluorophenyl)-1-((1-methylcyclopropyl)methyl)-1H-imidazol-5-yl)imidazo[1,2-b]pyridazine-3-carbonitrile], for which the IC50 is 1.6 nM.

Regarding `N#Cc1cnc2ccc(-c3c(-c4ccc(F)c(Cl)c4)ncn3[C@@H]3CCC(F)(F)C3)nn12` [63′, (R)-6-(4-(3-chloro-4-fluorophenyl)-1-(3,3-difluorocyclopentyl)-1H-imidazol-5-yl)imidazo[1,2-b]pyridazine-3-carbonitrile], the IC50 worked out at 0.9 nM.

As to `N#Cc1cnc2ccc(-c3c(-c4ccc(F)c(Cl)c4)ncn3[C@H]3CCC(F)(F)C3)nn12` [64′, (S)-6-(4-(3-chloro-4-fluorophenyl)-1-(3,3-difluorocyclopentyl)-1H-imidazol-5-yl)imidazo[1,2-b]pyridazine-3-carbonitrile], the IC50 stood at 5.1 nM.

As for `N#Cc1cnc2ccc(-c3c(-c4ccc(F)cc4)ncn3C3CC(F)(F)C3)cn12` [66′, 6-(1-(3,3-difluorocyclobutyl)-4-(4-fluorophenyl)-1H-imidazol-5-yl)imidazo[1,2-a]pyridine-3-carbonitrile], the IC50 was 418 nM.

Turning to `CCC(C)n1cnc(-c2ccc(F)cc2)c1-c1ccc2ncc(C#N)n2c1` (stereo not shown) [67′, 6-(1-(sec-butyl)-4-(4-fluorophenyl)-1H-imidazol-5-yl)imidazo[1,2-a]pyridine-3-carbonitrile], the IC50 worked out at 55.8 nM.

Consider `C[C@@H](O)Cn1cnc(-c2ccc(F)cc2)c1-c1ccc2ncc(C#N)n2c1` [68′, (R)-6-(4-(4-fluorophenyl)-1-(2-hydroxypropyl)-1H-imidazol-5-yl)imidazo[1,2-a]pyridine-3-carbonitrile], for which the IC50 turned out to be 301 nM.

`CC(O)CCn1cnc(-c2ccc(F)cc2)c1-c1ccc2ncc(C#N)n2c1` (stereo not shown) [69′, 6-(4-(4-fluorophenyl)-1-(3-hydroxybutyl)-1H-imidazol-5-yl)imidazo[1,2-a]pyridine-3-carbonitrile]: the IC50 worked out at 151 nM.

For the compound `CCC(O)Cn1cnc(-c2ccc(F)cc2)c1-c1ccc2ncc(C#N)n2c1` (stereo not shown) [70′, 6-(4-(4-fluorophenyl)-1-(2-hydroxybutyl)-1H-imidazol-5-yl)imidazo[1,2-a]pyridine-3-carbonitrile], the IC50 was found to be 123 nM.

For the compound `N#Cc1cnc2ccc(-c3c(-c4ccc(F)cc4)ncn3C[C@@H](O)CO)cn12` [71′, (R)-6-(1-(2,3-dihydroxypropyl)-4-(4-fluorophenyl)-1H-imidazol-5-yl)imidazo[1,2-a]pyridine-3-carbonitrile], the IC50 stood at 170 nM.

`N#Cc1cnc2ccc(-c3c(-c4ccc(F)cc4)ncn3CC3CCC3)cn12` [72′, 6-(1-(cyclobutylmethyl)-4-(4-fluorophenyl)-1H-imidazol-5-yl)imidazo[1,2-a]pyridine-3-carbonitrile]: the IC50 came to 67.8 nM.

In the case of `CCn1cnc(-c2ccc(F)cc2)c1-c1ccc2ncc(C#N)n2c1` [73′, 6-(1-ethyl-4-(4-fluorophenyl)-1H-imidazol-5-yl)imidazo[1,2-a]pyridine-3-carbonitrile], the IC50 is 36.2 nM.

Turning to `CCC(CC)n1cnc(-c2ccc(F)cc2)c1-c1ccc2ncc(C#N)n2c1` [74′, 6-(4-(4-fluorophenyl)-1-(pentan-3-yl)-1H-imidazol-5-yl)imidazo[1,2-c]pyridine-3-carbonitrile], the IC50 turned out to be 152 nM.

As to `N#Cc1cnc2ccc(-c3c(-c4ccc(F)cc4)ncn3CCCO)cn12` [75′, 6-(4-(4-fluorophenyl)-1-(3-hydroxypropyl)-1H-imidazol-5-yl)imidazo[1,2-a]pyridine-3-carbonitrile], the IC50 came to 200 nM.

As for `CC(C)C(C)n1cnc(-c2ccc(F)cc2)c1-c1ccc2ncc(C#N)n2c1` (stereo not shown) [76′, 6-(4-(4-fluorophenyl)-1-(3-methylbutan-2-yl)-1H-imidazol-5-yl)imidazo[1,2-a]pyridine-3-carbonitrile], the IC50 was determined as 999 nM.

`N#Cc1cnc2ccc(-c3c(-c4ccc(F)cc4)ncn3C3CC3)cn12` [77′, 6-(1-cyclopropyl-4-(4-fluorophenyl)-1H-imidazol-5-yl)imidazo[1,2-a]pyridine-3-carbonitrile]: the IC50 was 19.8 nM.

`N#Cc1cnc2ccc(-c3c(-c4ccc(F)cc4)ncn3C3COC3)cn12` [78′, 6-(4-(4-fluorophenyl)-1-(oxetan-3-yl)-1H-imidazol-5-yl)imidazo[1,2-a]pyridine-3-carbonitrile]: the IC50 worked out at 568 nM.

For the compound `CC(C)n1cnc(-c2ccc(F)cc2)c1-c1ccc2ncc(C#N)n2c1` [79′, 6-(4-(4-fluorophenyl)-1-isopropyl-1H-imidazol-5-yl)imidazo[1,2-a]pyridine-3-carbonitrile], the IC50 was found to be 55.3 nM.

For `CC(CCO)n1cnc(-c2ccc(F)cc2)c1-c1ccc2ncc(C#N)n2c1` (stereo not shown) [80′, 6-(4-(4-fluorophenyl)-1-(4-hydroxybutan-2-yl)-1H-imidazol-5-yl)imidazo[1,2-a]pyridine-3-carbonitrile], the IC50 amounted to 31 nM.

Consider `CC(CO)n1cnc(-c2ccc(F)cc2)c1-c1ccc2ncc(C#N)n2c1` (stereo not shown) [81′, 6-(4-(4-fluorophenyl)-1-(1-hydroxypropan-2-yl)-1H-imidazol-5-yl)imidazo[1,2-a]pyridine-3-carbonitrile], for which the half-maximal inhibitory concentration (IC50) stood at 88.5 nM.

Consider `CC(C)Cn1cnc(-c2ccc(F)cc2)c1-c1ccc2ncc(C#N)n2c1` [82′, 6-(4-(4-fluorophenyl)-1-isobutyl-1H-imidazol-5-yl)imidazo[1,2-a]pyridine-3-carbonitrile], for which the IC50 was found to be 71.6 nM.

Consider `CCC(CO)n1cnc(-c2ccc(F)cc2)c1-c1ccc2ncc(C#N)n2c1` (stereo not shown) [83′, 6-(4-(4-fluorophenyl)-1-(1-hydroxybutan-2-yl)-1H-imidazol-5-yl)imidazo[1,2-a]pyridine-3-carbonitrile], for which the IC50 turned out to be 189 nM.

For the compound `N#Cc1cnc2ccc(-c3c(-c4ccc(F)cc4)ncn3CCCF)cn12` [84′, 6-(4-(4-fluorophenyl)-1-(3-fluoropropyl)-1H-imidazol-5-yl)imidazo[1,2-a]pyridine-3-carbonitrile], the IC50 was 121 nM.

In the case of `N#Cc1cnc2ccc(-c3c(-c4ccc(F)cc4)ncn3C(CO)CO)cn12` [85′, 6-(1-(1,3-dihydroxypropan-2-yl)-4-(4-fluorophenyl)-1H-imidazol-5-yl)imidazo[1,2-a]pyridine-3-carbonitrile], the IC50 turned out to be 144 nM.

Turning to `N#Cc1cnc2ccc(-c3c(-c4ccc(F)cc4)ncn3C3CCCC3)cn12` [86′, 6-(1-cyclopentyl-4-(4-fluorophenyl)-1H-imidazol-5-yl)imidazo[1,2-a]pyridine-3-carbonitrile], the IC50 is 94.7 nM.

As to `CCCn1cnc(-c2ccc(F)cc2)c1-c1ccc2ncc(C#N)n2c1` [87′, 6-(4-(4-fluorophenyl)-1-propyl-1H-imidazol-5-yl)imidazo[1,2-a]pyridine-3-carbonitrile], the IC50 is 40.3 nM.

For `CC(C1CC1)n1cnc(-c2ccc(F)cc2)c1-c1ccc2ncc(C#N)n2c1` (stereo not shown) [88′, 6-(1-(1-cyclopropylethyl)-4-(4-fluorophenyl)-1H-imidazol-5-yl)imidazo[1,2-a]pyridine-3-carbonitrile], the IC50 worked out at 19.3 nM.

With `C[C@H](O)Cn1cnc(-c2ccc(F)cc2)c1-c1ccc2ncc(C#N)n2c1` [89′, (S)-6-(4-(4-fluorophenyl)-1-(2-hydroxypropyl)-1H-imidazol-5-yl)imidazo[1,2-a]pyridine-3-carbonitrile], the IC50 turned out to be 127 nM.
